Results reported in US20080038267A1, “Treatment Of Cancer” (NEUTEC PHARMA LIMITED, priority 2004, published 2008).
≈ marks a conversion by molar mass, not a printed value. Like-named read-outs stand apart in the source and are kept apart here.

Key:
HT29 cells [1] = assay: Cell Titer Blue viability, drugs without Mycograb or Mycograb alone, HT29 cells; assay type: cell-based, human; conditions: for IC50: 5-FU tested plus 1 mg/ml Folinic acid
Experimental: (§1) Viable cells reduce resazurin to resorufin (pink).
(§2) Cell growth was evaluated as described above.
Human colon adenocarcinoma grade 11 cell line HT29, was obtained from ECACC (ECACC number 91072201).
The cell lines were split and the cells counted. […] The next day, the cells were observed under phase contrast microscopy to ensure they had adhered to the plates and the supernatant medium removed by aspiration. 100 μl of fresh complete RPMI medium containing increasing two fold concentrations of study drug (5-FU 4.5-2400 μg/ml plus 1 mg/ml Folinic acid or Oxaliplatin 1-500 μg/ml) or medium alone (Media+2.5% DMSO for 5-FU control) was then added to the wells.

HT29 cells [2] = assay: Checkerboard of Mycograb versus 5-FU/Folinic acid and/or Oxaliplatin, median effect analysis (CI), HT29 cells; assay type: cell-based, human; conditions: for Dm: median effect analysis (Calcusyn)
From the text: as §1
CI values are shown for Fa50.
(§3) The cell lines were split and the cells counted.
as §3

[3] = system: Hsp 90 in multi-chaperone complexes derived from tumour cells; conditions: higher than Hsp90 from normal cells (latent uncomplexed state); cited from earlier work
K562 cells = assay: Cell Titer Blue viability, single drug, K562 cells
Experimental: as §1, §2
K562 was established from pleural effusion of person with chronic myelogenous leukaemia in terminal blast crisis. […] The line used in these experiments was the K562B. […] K562B has been compared to K562A and K562 C, with respect to growth kinetics, cell surface protein markers, surface antigens, cytogenetics and hemoglobin production.
(§4) The cell lines were counted. […] Fresh medium containing either two-fold increasing concentrations of Mycograb® (1.5-200 μg/ml), or medium alone was then added to the wells. The plate was returned to the incubator for 48 hours following which the cell titre blue assay was carried out, or viable counts were determined using a haemocytometer.
(§5) The cell lines were counted. […] The plates were returned to the incubator for 48 hours following which cell titre blue assays were carried out.

HS578T cells = assay: Cell Titer Blue viability, single drug, HS578T cells; assay type: cell-based, human
Experimental: (§6) Viable cells reduce resazurin to resorufin (pink). Cell growth was evaluated as described above. […] The cell lines were split and cells counted. […] The next day, the cells were observed under phase contrast microscopy to ensure they had adhered to the plates and the supernatant medium removed by aspiration.

MCF7 cells = assay: Cell Titer Blue viability, single drug, MCF7 cells; assay type: cell-based, human
Experimental: as §6

KU-812 cells = assay: Cell Titer Blue viability, single drug, KU-812 cells; conditions: Mycograb on its own at 50 μg/ml
Experimental: as §1, §2, §4, §5

[4] = K562 cells, single drug, 48 hour incubation
[5] = Homo sapiens, Hs-578T, HS578T cells, single drug, 48 hour incubation, read-out: IC50
[6] = Homo sapiens, MCF7 cells, single drug, 48 hour incubation, read-out: IC50

Molecule: O=c1[nH]cc(F)c(=O)[nH]1 [5-FU, 5-Fluorouracil]
- IC50 (HT29 cells [1]; Homo sapiens, HT-29, 48 hours, read-out: IC50): 150 µg/mL
- IC50 (HT29 cells [2]; Homo sapiens, HT-29, median effect analysis (Calcusyn), read-out: Dm): 297 µg/mL

Molecule: C=CCNC1=C2C[C@@H](C)C[C@H](OC)[C@H](O)[C@@H](C)/C=C(\C)[C@H](OC(N)=O)[C@@H](OC)/C=C\C=C(/C)C(=O)NC(=CC1=O)C2=O [17AAG, 17-allylamino, 17-desmethoxygeldanamycin]
- binding affinity for 17AAG, Hsp 90 in tumour-cell multi-chaperone complexes versus Hsp90 from normal cells [3]: 100 fold

Molecule: N.N.[Cl][Pt][Cl] [Cisplatin]
- IC50 (K562 cells; [4]): 12.5 µg/mL
- IC50 (HS578T cells; HS578T cells, single drug, 48 hour incubation): 12.5 µg/mL
- IC50 (MCF7 cells; MCF7 cells, single drug, 48 hour incubation): 6 µg/mL

Molecule: COc1cccc2c1C(=O)c1c(O)c3c(c(O)c1C2=O)C[C@@](O)(C(C)=O)C[C@@H]3O[C@H]1C[C@H](N)[C@H](O)[C@H](C)O1 [Daunorubicin]
- IC50 (K562 cells; Homo sapiens, K562, 48 h): 0.75 µg/mL (≈ 1.42 µM)
- IC50 (HS578T cells; Homo sapiens, Hs-578T, 48 h): 1 µg/mL (≈ 1.9 µM)
- IC50 (MCF7 cells; Homo sapiens, MCF7, 48 h): 1 µg/mL (≈ 1.9 µM)

Molecule: CC(=O)O[C@@]12CO[C@@H]1C[C@H](O)[C@@]1(C)C(=O)[C@H](O)C3=C(C)[C@@H](OC(=O)[C@H](O)[C@@H](NC(=O)OC(C)(C)C)c4ccccc4)C[C@@](O)([C@@H](OC(=O)c4ccccc4)[C@H]21)C3(C)C [Docetaxel]
- IC50 (K562 cells; Homo sapiens, K562, 48 h): 70 µg/mL (≈ 86.6 µM)
- IC50 (HS578T cells; [5]): 50 µg/mL (≈ 61.9 µM)
- IC50 (MCF7 cells; [6]): 225 µg/mL (≈ 279 µM)

Molecule: COc1cccc2c1C(=O)c1c(O)c3c(c(O)c1C2=O)C[C@@](O)(C(=O)CO)C[C@@H]3O[C@H]1C[C@H](N)[C@H](O)[C@H](C)O1 [Doxorubicin]
- IC50 (K562 cells; Homo sapiens, K562, 48 h): 1 µg/mL (≈ 1.84 µM)
- IC50 (HS578T cells; [5]): 1 µg/mL (≈ 1.84 µM)
- IC50 (MCF7 cells; [6]): 1.75 µg/mL (≈ 3.22 µM)

Molecule: NC(=O)NO [Hydroxyurea]
- IC50 (K562 cells; [4]): never reached

Molecule: O=C1[O][Pt]2([NH][C@@H]3CCCC[C@H]3[NH]2)[O]C1=O [Oxaliplatin]
- IC50 (HT29 cells [1]; 48 hours): 16 µg/mL
- Dm (HT29 cells [2]): 27.77

Molecule: CC(=O)O[C@H]1C(=O)[C@@]2(C)[C@H]([C@H](OC(=O)c3ccccc3)[C@]3(O)C[C@H](OC(=O)[C@H](O)[C@@H](NC(=O)c4ccccc4)c4ccccc4)C(C)=C1C3(C)C)[C@]1(OC(C)=O)CO[C@@H]1C[C@@H]2O [Paclitaxel]
- IC50 (K562 cells; Homo sapiens, K562, 48 h): 32 µg/mL (≈ 37.5 µM)
- IC50 (MCF7 cells; [6]): 225 µg/mL (≈ 263 µM)

B1: Mycograb: anti-Hsp90 antibody disclosed in WO 01/76627, sequence of SEQ ID NO: 2, specific for epitope of peptide SEQ ID NO: 1 (protein)
chain: HMAEVQLVESGAEVKKPGESLRISCKGSGCIISSYWISWVRQMPGKGLEWMGKIDPGDSYINYSPSFQGHVTISADKSINTAYLQWNSLKASDTAMYYCARGGRDFGDSFDYWGQGTLVTVSSGGGGSGGGGSGGGGSDVVMTQSPSFLSAFVGDRITITCRASSGISRYLAWYQQAPGKAPKLLIYAASTLQTGVPSRFSGSGSGTEFTLTINSLQPEDFATYYCQHLNSYPLTFGGGTKVDIKRAA
- reduction in cell viability (K562 cells; K562 cells, Mycograb on its own at 12.5 μg/ml): 40%
- reduction in cell viability (HT29 cells [1]; Mycograb on its own at 125 μg/ml): 50%
- Dm (HT29 cells [2]): 96.47
- sensitivity of cell line to Mycograb alone (HS578T cells; HS578T cells, increasing concentrations up to 400 mg/l): insensitive
- reduction in cell viability (KU-812 cells): 40%
